Source: patent US11725037B2, “Peptide dual agonists of GIPR and GLP2R” (University of Copenhagen, priority 2017, dated 2023)

How the values were obtained:
human GLP-2 receptor = biological target: T1, human GLP-2 receptor (Homo sapiens, UniProt O95838); test: cAMP accumulation assay (HitHunter cAMP XS) in transiently transfected COS-7 cells expressing the human GLP-2 receptor; type: cell-based; conditions: for logEC50, GLP-2 receptor: log value; for Emax at 10 µM: COS-7, read-out: Emax (10 μM), GLP-2 receptor
T1 construct: host or cells: COS-7 (transient, calcium phosphate; pCMV-Script vector)
T1 sequence (O95838 1-553): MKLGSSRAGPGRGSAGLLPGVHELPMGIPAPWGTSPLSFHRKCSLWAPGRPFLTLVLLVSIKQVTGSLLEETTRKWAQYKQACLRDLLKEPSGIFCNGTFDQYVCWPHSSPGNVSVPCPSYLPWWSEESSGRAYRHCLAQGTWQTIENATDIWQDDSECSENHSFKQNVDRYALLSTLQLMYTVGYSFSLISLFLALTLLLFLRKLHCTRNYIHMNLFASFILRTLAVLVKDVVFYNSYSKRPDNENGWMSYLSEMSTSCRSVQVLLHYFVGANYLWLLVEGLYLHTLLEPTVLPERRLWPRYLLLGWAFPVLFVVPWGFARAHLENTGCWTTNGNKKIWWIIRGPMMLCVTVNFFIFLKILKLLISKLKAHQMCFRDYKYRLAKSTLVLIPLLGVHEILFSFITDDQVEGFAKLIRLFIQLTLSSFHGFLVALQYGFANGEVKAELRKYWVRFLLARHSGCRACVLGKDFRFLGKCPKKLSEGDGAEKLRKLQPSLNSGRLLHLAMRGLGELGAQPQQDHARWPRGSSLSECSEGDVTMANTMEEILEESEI
Method: (§1) The day after, the cells were washed twice with Hepes buffered saline (HBS) buffer and incubated with HBS and 1 mM 3-isobutyl-1-methylxanthine (IBMX) for 30 min at 37° C. Ligands were added and incubated for 30 min at 37° C. The HitHunter™ cAMP XS assay (DiscoveRx) was carried out according to the manufacturer's instructions.

[1] = system: bone resorption (serum C-terminal cross-linking telopeptide of type I collagen, CTX); test: Human study 1: bone resorption by serum CTX after subcutaneous injection of GIP or GLP-2; type: in vivo; conditions: for reduction in bone resorption (CTX): 200 μg GIP and 800 μg GLP-2, each alone, s.c., restated in Example 4; for bone resorption (CTX), maximum effect, % of base line: healthy young men
Method: Method: Eight healthy young men were enrolled. […] Participants arrived in the morning (fasted overnight) and received the injection around 8.30 a.m. Blood samples were collected before (−25 and −10 min) and every 30 minutes after injection (30, 60, 90, 120, 180 and 240 min). After last participant's last visit, bone resorption was determined by measurements of serum C-terminal cross-linking telopeptide of type I collagen (CTX; IDS Immunodiagnostic Systems GmbH, Frankfurt am Main, Germany)

human GIP receptor = biological target: T2, human GIP receptor (Homo sapiens, UniProt P48546); test: cAMP accumulation assay (HitHunter cAMP XS) in transiently transfected COS-7 cells expressing the human GIP receptor; type: cell-based; conditions: for Emax at 10 µM: COS-7, read-out: Emax (10 μM), GIP receptor; for EC50: cAMP, COS-7
T2 construct: host or cells: COS-7 (transient, calcium phosphate; pCMV-Script vector)
T2 sequence (P48546 22-466): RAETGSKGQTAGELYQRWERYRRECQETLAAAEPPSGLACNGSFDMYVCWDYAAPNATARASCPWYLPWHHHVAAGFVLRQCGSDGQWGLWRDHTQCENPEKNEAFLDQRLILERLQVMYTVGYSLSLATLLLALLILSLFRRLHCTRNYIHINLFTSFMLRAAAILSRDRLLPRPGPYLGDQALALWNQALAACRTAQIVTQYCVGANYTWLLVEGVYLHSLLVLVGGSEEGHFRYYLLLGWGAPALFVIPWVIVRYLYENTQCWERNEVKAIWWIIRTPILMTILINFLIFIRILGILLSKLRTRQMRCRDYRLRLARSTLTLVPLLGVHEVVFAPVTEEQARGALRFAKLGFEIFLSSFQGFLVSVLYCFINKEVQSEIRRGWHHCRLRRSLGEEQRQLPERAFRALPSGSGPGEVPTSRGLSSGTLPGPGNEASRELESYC
Method: as §1

[2] = system: mouse mesenchymal osteoblast precursor cell line KS483; test: Osteoblast differentiation assay: intracellular alkaline phosphatase activity (ALP) at day 8; type: cell-based; conditions: 1 μM, day 8, KS483 cells, mean±sem, n=6
Method: Aim: Testing the effects of 2 test compounds on differentiation and activity of osteoblasts in vitro in a preliminary set-up.
Method: One concentration of each test compound (1 μM) is tested. Effects on osteoblast differentiation are studied using a mouse mesenchymal osteoblast precursor cell line KS483. The cells are cultured on plastic surface in 96-well plates for 8 days, allowing them to differentiate into mature bone-forming osteoblasts. Baseline with vehicle • 1. Compound 3: Vehicle • 2. Compound 5: GIP-GLP-2 agonist 3 (SEQ ID NO:3) • 3. Compound 6: GIP-GLP-2 agonist 19 (SEQ ID NO:19)
In osteoblast differentiation assay: Intracellular alkaline phosphatase activity (ALP) at day 8 as an index of the number of mature osteoblasts formed.

[3] = logEC50, GIP receptor, Table 1, log value

logEC50, GLP-2 receptor (human GLP-2 receptor; Table 1, cAMP, COS-7)	logEC50, GLP-2 receptor (human GLP-2 receptor; Table 2, cAMP, COS-7)	Emax at 10 µM (human GIP receptor) [%]	EC50 (human GIP receptor; EC50(nM), GIP receptor, Table 1) [nM]	potency (and efficacy) on the GIP receptor compared with native GIP, in words (human GIP receptor; Table 1)	EC50 (human GIP receptor; [3]) [nM]	Emax at 10 µM (human GLP-2 receptor) [%]	potency and efficacy on the GLP-2R compared with native GLP-2, in words (human GLP-2 receptor; Table 1)	fold (fold change of native GIP), GIP receptor (human GIP receptor; Table 1, EC50 relative to native GIP) [fold]	fold (fold change of native GLP-2), GLP-2 receptor (human GLP-2 receptor; Table 1, EC50 relative to native GLP-2) [fold]	EC50 (human GLP-2 receptor; logEC50, GLP-2 receptor, Table 1, cAMP, COS-7) [nM]	Structure (SMILES)	reduction in bone resorption (CTX) [1] [%]	bone resorption (CTX), maximum effect, % of base line ([1]; human GIP 200 μg s.c., 90 min after injection)	bone resorption (CTX), maximum effect, % of base line ([1]; human GLP-2 800 μg s.c., 180 min after administration)	ALP activity compared to vehicle [2] [%]
no activation	no activation	–	–	–	–	–	–	–	–	–	CC[C@H](C)[C@H](NC(=O)[C@H](CO)NC(=O)[C@H](Cc1ccc(O)cc1)NC(=O)[C@H](CC(=O)O)NC(=O)[C@H](CO)NC(=O)[C@@H](NC(=O)[C@H](Cc1ccccc1)NC(=O)[C@@H](NC(=O)CNC(=O)[C@H](CCC(=O)O)NC(=O)[C@H](C)NC(=O)[C@@H](N)Cc1ccc(O)cc1)[C@@H](C)O)[C@@H](C)CC)C(=O)N[C@@H](C)C(=O)N[C@@H](CCSC)C(=O)N[C@@H](CC(=O)O)C(=O)N[C@@H](CCCCN)C(=O)N[C@H](C(=O)N[C@@H](Cc1c[nH]cn1)C(=O)N[C@@H](CCC(N)=O)C(=O)N[C@@H](CCC(N)=O)C(=O)N[C@@H](CC(=O)O)C(=O)N[C@@H](Cc1ccccc1)C(=O)N[C@H](C(=O)N[C@@H](CC(N)=O)C(=O)N[C@@H](Cc1c[nH]c2ccccc12)C(=O)N[C@@H](CC(C)C)C(=O)N[C@@H](CC(C)C)C(=O)N[C@@H](C)C(=O)N[C@@H](CCC(N)=O)C(=O)N[C@@H](CCCCN)C(=O)NCC(=O)N[C@@H](CCCCN)C(=O)N[C@@H](CCCCN)C(=O)N[C@@H](CC(N)=O)C(=O)N[C@@H](CC(=O)O)C(=O)N[C@@H](Cc1c[nH]c2ccccc12)C(=O)N[C@@H](CCCCN)C(=O)N[C@@H](Cc1c[nH]cn1)C(=O)N[C@@H](CC(N)=O)C(=O)N[C@H](C(=O)N[C@H](C(=O)N[C@@H](CCC(N)=O)C(=O)O)[C@@H](C)O)[C@@H](C)CC)C(C)C)[C@@H](C)CC [GIP, reference compound]	~50	56.2±11.2 % of base line	–	–
–	–	22	56	–	–	–	–	–	–	–	CC[C@H](C)[C@H](NC(=O)[C@H](Cc1ccccc1)NC(=O)[C@H](CC(=O)O)NC(=O)[C@H](CCCNC(=N)N)NC(=O)[C@H](C)NC(=O)[C@H](C)NC(=O)[C@H](CC(C)C)NC(=O)[C@H](CC(N)=O)NC(=O)[C@H](CC(=O)O)NC(=O)[C@H](CC(C)C)NC(=O)[C@@H](NC(=O)[C@@H](NC(=O)[C@H](CC(N)=O)NC(=O)[C@H](CCSC)NC(=O)[C@H](CCC(=O)O)NC(=O)[C@H](CC(=O)O)NC(=O)[C@H](CO)NC(=O)[C@H](Cc1ccccc1)NC(=O)[C@H](CO)NC(=O)CNC(=O)[C@H](CC(=O)O)NC(=O)[C@H](C)NC(=O)[C@@H](N)Cc1c[nH]cn1)[C@@H](C)O)[C@@H](C)CC)C(=O)N[C@@H](CC(N)=O)C(=O)N[C@@H](Cc1c[nH]c2ccccc12)C(=O)N[C@@H](CC(C)C)C(=O)N[C@H](C(=O)N[C@@H](CCC(N)=O)C(=O)N[C@H](C(=O)N[C@@H](CCCCN)C(=O)N[C@H](C(=O)N[C@H](C(=O)N[C@@H](CC(=O)O)C(=O)O)[C@@H](C)O)[C@@H](C)CC)[C@@H](C)O)[C@@H](C)CC [GLP-2, reference compound]	~50	–	63.4±3.4 % of base line	–
–	–	93	–	almost the same potency and efficacy	0.251	91	almost the same potency and efficacy	–	–	–	CC[C@H](C)[C@H](NC(=O)[C@H](Cc1ccccc1)NC(=O)[C@H](CC(=O)O)NC(=O)[C@H](CCCNC(=N)N)NC(=O)[C@H](C)NC(=O)[C@H](C)NC(=O)[C@H](CC(C)C)NC(=O)[C@H](CC(N)=O)NC(=O)[C@H](CC(=O)O)NC(=O)[C@H](CC(C)C)NC(=O)[C@@H](NC(=O)[C@@H](NC(=O)[C@H](CO)NC(=O)[C@H](Cc1ccc(O)cc1)NC(=O)[C@H](CC(=O)O)NC(=O)[C@H](CO)NC(=O)[C@@H](NC(=O)[C@H](Cc1ccccc1)NC(=O)[C@@H](NC(=O)CNC(=O)[C@H](CC(=O)O)NC(=O)[C@H](C)NC(=O)[C@@H](N)Cc1c[nH]cn1)[C@@H](C)O)[C@@H](C)CC)[C@@H](C)O)[C@@H](C)CC)C(=O)N[C@@H](CC(N)=O)C(=O)N[C@@H](Cc1c[nH]c2ccccc12)C(=O)N[C@@H](CC(C)C)C(=O)N[C@H](C(=O)N[C@@H](CCC(N)=O)C(=O)N[C@H](C(=O)N[C@@H](CCCCN)C(=O)NCC(=O)N[C@@H](CCCCN)C(=O)N[C@@H](CCCCN)C(=O)O)[C@@H](C)O)[C@@H](C)CC [Co-agonist 19]	–	–	–	115±8.9
–	–	100	–	same potency as native GIP(1-42)	0.107	100	–	1.2	18	21.4	CC[C@H](C)[C@H](NC(=O)[C@H](Cc1ccccc1)NC(=O)[C@H](CC(=O)O)NC(=O)[C@H](CCCNC(=N)N)NC(=O)[C@H](C)NC(=O)[C@H](C)NC(=O)[C@H](CC(C)C)NC(=O)[C@H](CC(N)=O)NC(=O)[C@H](CC(=O)O)NC(=O)[C@H](CC(C)C)NC(=O)[C@@H](NC(=O)[C@@H](NC(=O)[C@H](CO)NC(=O)[C@H](Cc1ccc(O)cc1)NC(=O)[C@H](CC(=O)O)NC(=O)[C@H](CO)NC(=O)[C@@H](NC(=O)[C@H](Cc1ccccc1)NC(=O)[C@@H](NC(=O)CNC(=O)[C@H](CC(=O)O)NC(=O)[C@H](C)NC(=O)[C@@H](N)Cc1c[nH]cn1)[C@@H](C)O)[C@@H](C)CC)[C@@H](C)O)[C@@H](C)CC)C(=O)N[C@@H](CC(N)=O)C(=O)N[C@@H](Cc1c[nH]c2ccccc12)C(=O)N[C@@H](CC(C)C)C(=O)N[C@H](C(=O)N[C@@H](CCC(N)=O)C(=O)N[C@H](C(=O)N[C@@H](CCCCN)C(=O)N[C@H](C(=O)N[C@H](C(=O)N[C@@H](CC(=O)O)C(=O)O)[C@@H](C)O)[C@@H](C)CC)[C@@H](C)O)[C@@H](C)CC [Co-agonist 3]	–	–	–	112±5.6
